Assay results reported in ChEMBL document CHEMBL5532634, “Oxazolidinone: A promising scaffold for the development of antibacterial drugs” (Eur J Med Chem, 2023).
pIC50: −log10 of the molar value. In brackets after ≈: the same amount, converted by molar mass.

How the values were obtained:
[1] = tested on: Staphylococcus aureus; assay: Antibacterial activity against Staphylococcus aureus ATCC 29213 assessed as reduction in microbial growth measured after 24 hrs by broth microdilution analysis; format: functional
[2] = tested on: Staphylococcus aureus; assay: Antibacterial activity against Staphylococcus aureus ATCC 29213 assessed as reduction in bacterial growth incubated for 24 hrs by serial dilution method; format: functional
[3] = tested on: Streptococcus pneumoniae; assay: Antibacterial activity against Streptococcus pneumoniae ATCC 49619 assessed as reduction in bacterial growth measured after 18 hrs by CLSI based analysis; format: functional
[4] = tested on: Moraxella catarrhalis; assay: Antibacterial activity against wild type Moraxella catarrhalis incubated for 20 hrs by two-fold serial dilution method; format: functional
[5] = tested on: Haemophilus influenzae; assay: Antibacterial activity against Haemophilus influenzae ATCC 49247 by broth microdilution method; format: functional
[6] = tested on: Staphylococcus aureus; assay: Antibacterial activity against Staphylococcus aureus ATCC 25923 assessed as growth inhibition measured after 18 hrs by CLSI based method; format: functional
[7] = tested on: Streptococcus pyogenes; assay: Antibacterial activity Streptococcus pyogenes ATCC 12344 assessed as reduction in microbial growth by broth microdilution method; format: functional
[8] = tested on: Bacillus subtilis; assay: Antibacterial activity against Bacillus subtilis ATCC 6633 assessed as inhibition of bacterial growth incubated for 24 hrs by CLSI based broth microdilution method; format: functional
[9] = tested on: Staphylococcus aureus; assay: Antibacterial activity against Methicillin-resistant Staphylococcus aureus assessed as reduction in microbial growth by Muller Hinton broth based dilution assay; format: functional
[10] = tested on: Staphylococcus aureus; assay: In vivo Antibacterial activity against Methicillin-resistant Staphylococcus aureus in PO dosed mouse infected model assessed as reduction in bacterial load; format: functional
[11] = tested on: Enterococcus faecalis; assay: Antibacterial activity against Enterococcus faecalis UC9217 assessed as reduction in bacterial growth by broth microdilution method; format: functional
[12] = tested on: Staphylococcus epidermidis; assay: Antibacterial activity methicillin-resistant Staphylococcus epidermidis UC12084 assessed as reduction in bacterial growth by broth microdilution method; format: functional
[13] = tested on: Moraxella catarrhalis; assay: Antibacterial activity against Moraxella catarrhalis UC30610 assessed as reduction in bacterial growth by broth microdilution method; format: functional
[14] = tested on: Haemophilus influenzae; assay: Antibacterial activity against Haemophilus influenzae UC30063 assessed as reduction in bacterial growth by broth microdilution method; format: functional
[15] = tested on: Mycobacterium tuberculosis; assay: Antimycobacterial activity against Mycobacterium tuberculosis assessed as reduction in bacterial growth; format: functional
[16] = tested on: Staphylococcus aureus; assay: Antibacterial activity against methicillin-resistant Staphylococcus aureus ATCC 3300 assessed as reduction in microbial growth measured after 24 hrs by broth microdilution analysis; format: functional
[17] = tested on: Staphylococcus aureus; assay: Antibacterial activity against Staphylococcus aureus ATCC 29213 assessed as bacterial growth inhibition incubated for 24 hrs by broth dilution method; format: functional
[18] = tested on: Staphylococcus aureus; assay: Antibacterial activity against Linezolid-resistant Staphylococcus aureus assessed as reduction in bacterial growth; format: functional
[19] = tested on: Enterococcus faecium; assay: Antibacterial activity against Linezolid-resistant Enterococcus faecium assessed as reduction in bacterial growth; format: functional
[20] = tested on: Staphylococcus aureus; assay: In vivo antibacterial activity against Staphylococcus aureus UC9213 infected in PO dosed mouse assessed as reduction in bacterial infection measured after 6 days by hematoxylin and eosin staining based microscopic analysis; format: functional; conditions: UC9213, 144 h, time 6 day
[21] = tested on: Staphylococcus aureus; assay: Antibacterial activity against Staphylococcus aureus UC9213 assessed as reduction in bacterial growth; format: functional
[22] = tested on: Enterococcus faecalis; assay: Antibacterial activity against Enterococcus faecalis ATCC 29212 assessed as inhibition of bacterial growth incubated for 24 hrs by CLSI based broth microdilution method; format: functional
[23] = tested on: Staphylococcus aureus; assay: Antibacterial activity against Staphylococcus aureus ATCC 25923 assessed as inhibition of bacterial growth incubated for 24 hrs by CLSI based broth microdilution method; format: functional
[24] = tested on: Streptococcus pneumoniae; assay: Antibacterial activity against Streptococcus pneumoniae ATCC 49619 assessed as inhibition of bacterial growth incubated for 24 hrs by CLSI based broth microdilution method; format: functional
[25] = tested on: PC-3; assay: Inhibition of mitochondrial protein synthesis in human PC-3 cells at 100 uM incubated for 5 days; format: functional, cell-based; conditions: PC-3, 120 h
[26] = tested on: Mycobacterium tuberculosis; assay: Antimycobacterial activity against Mycobacterium tuberculosis H37Rv assessed as reduction in bacterial growth incubated for 7 days by resazurin based assay; format: functional; conditions: 168 h, time 7 day

`O=C([C@H](O)CO)N1CC=C(c2ccc(N3C[C@H](COc4ccon4)OC3=O)cc2F)CC1` gave an MIC [1] of 0.25 µg/mL.

In the case of `CC(=O)NC[C@H]1CN(c2ccc(-n3cc(C(=O)O)c(=O)c4cc(F)c(N5CCN(C)CC5)cc43)c(F)c2)C(=O)O1`, the MIC [2] was > 64 µg/mL.

`CC(=O)NC[C@H]1CN(c2ccc(-c3ccc(CNCc4cnn[nH]4)cc3)c(F)c2)C(=O)O1` [RADEZOLID] was tested, and the MIC [3] was 0.25 µg/mL (≈ 0.57 µM), the MIC90 [4] was 0.5 µg/mL (≈ 1.14 µM) and the MIC90 [5] was 1 µg/mL (≈ 2.28 µM). It also gave an MIC [6] of 1 µg/mL (≈ 2.28 µM) and an MIC [7] of 0.25 µg/mL.

`O=C([C@@H](O)CO)N1CC=C(c2c(F)cc(N3C[C@H](COc4ccon4)OC3=O)cc2F)CC1` [POSIZOLID] showed an MIC [1] of 0.25 µg/mL.

Work on `CC(=O)NC[C@H]1CN(c2cnc(N3CCN(C(=O)/C=C/c4ccco4)CC3)c(F)c2)C(=O)O1` yielded an MIC [8] of 4 µg/mL (≈ 8.74 µM).

Compound `O=C1O[C@@H](Cn2ccnn2)CN1c1ccc(N2CCN(S(=O)(=O)c3cccc(C(F)(F)F)c3)CC2)c(F)c1` has an MIC [9] of 0.5 µg/mL.

`CC(=O)NC[C@H]1CN(c2ccc(-n3ncc(C#N)n3)c(F)c2)C(=O)O1` was tested, and the ED50 [10] was 1.9 mg/kg, the MIC [11] was 0.125 µg/mL (≈ 0.363 µM) and the MIC [12] was 0.125 µg/mL (≈ 0.363 µM). The MIC [13] was 2 µg/mL (≈ 5.81 µM) and the MIC [14] was 2 µg/mL (≈ 5.81 µM).

Compound `CC(=O)NC[C@H]1CN(c2ccc(N3CCSCC3)c(F)c2)C(=O)O1` [SUTEZOLID] has an MIC [15] of 0.125 µg/mL (≈ 0.354 µM).

`CC(=O)NC[C@H]1CN(c2ccc(C3=CCOCC3)c(F)c2)C(=O)O1` showed an MIC [16] of 0.13 µg/mL.

With `CC/C(S)=N\C[C@H]1CN(c2cc(F)c3c(c2)OC[C@@H]2CCCN32)C(=O)O1` the MIC [17] was 0.5 µg/mL (≈ 1.32 µM).

`CC(=O)NC[C@H]1CN(c2ccc(-n3ccc(C#N)c3)c(F)c2)C(=O)O1` was tested, and the ED50 [10] was 1.9 mg/kg, the MIC [11] was 0.125 µg/mL (≈ 0.365 µM) and the MIC [12] was 0.125 µg/mL (≈ 0.365 µM). The MIC [13] was 2 µg/mL (≈ 5.84 µM) and the MIC [14] was 2 µg/mL (≈ 5.84 µM).

Work on `C[C@@H](O)C(=O)N1CC=C(c2c(F)cc(N3C[C@H](COc4ccon4)OC3=O)cc2F)CC1` yielded an MIC [1] of 0.25 µg/mL.

For `O=C1O[C@@H](COc2ccccn2)CN1c1ccc(C2=CCOCC2)c(F)c1`, the MIC [16] was 1 µg/mL.

`CC(=O)NC[C@H]1CN(c2ccc(N3CCN(c4c(F)cc5c(=O)c(C(=O)O)cn6c5c4OC[C@@H]6C)CC3)c(F)c2)C(=O)O1` was tested, and the MIC [18] was 2 µg/mL (≈ 3.35 µM) and the MIC [19] was 0.5 µg/mL (≈ 0.837 µM).

With `CC(=O)NC[C@H]1CC(c2ccc(C3=CCN(C(=O)CO)CC3)c(F)c2)=NO1` the ED50 [20] was 9.1 mg/kg and the MIC [21] was 1 µg/mL (≈ 2.66 µM).

Work on `CC(=O)NC[C@H]1CN(c2ccc(N3CCN(C(=O)/C=C/c4ccco4)CC3)nc2)C(=O)O1` yielded an MIC [22] of 8 µg/mL (≈ 18.2 µM) and an MIC [23] of 8 µg/mL (≈ 18.2 µM).

`O=C1O[C@@H](COc2ccon2)CN1c1ccc(C2=CCOCC2)c(F)c1` gave an MIC [16] of 0.5 µg/mL.

For `CC(=O)NC[C@H]1CN(c2ccc(N3CCN(C(=O)c4ccco4)CC3)nc2)C(=O)O1`, the MIC [24] was > 64 µg/mL.

In the case of `COC(=O)NC[C@H]1CN(c2ccc(N3CC4(COC4)C3)c(F)c2)C(=O)O1` [TBI-223], the pIC50 [25] was < 4.13 and the MIC [26] was 0.6 µg/mL (≈ 1.64 µM).
